Measured values: article PMC10412597, “Small molecule branched-chain ketoacid dehydrogenase kinase (BDK) inhibitors with opposing effects on BDK protein levels” (Nature Communications, 2023)

What was measured:
Parameters in all cases: Cerep Bioprint off-target panel, functional receptor agonism or antagonism
[1] = target: T1, Adenosine A1 Receptor (Homo sapiens, UniProt P30542); details: agonist
T1 construct: gene ADORA1
Method: (§1) To discover a potent and selective BDK inhibitor, a subset of the Pfizer compound collection was screened. […] Off target activity was assessed in both CEREP and kinase panels (Supplementary Tables 2, 3).

[2] = target: T2, Adrenergic Alpha 1a Adrenoceptor (Homo sapiens, UniProt P35348)
T2 construct: gene ADRA1A
T2 sequence (P35348 1-466): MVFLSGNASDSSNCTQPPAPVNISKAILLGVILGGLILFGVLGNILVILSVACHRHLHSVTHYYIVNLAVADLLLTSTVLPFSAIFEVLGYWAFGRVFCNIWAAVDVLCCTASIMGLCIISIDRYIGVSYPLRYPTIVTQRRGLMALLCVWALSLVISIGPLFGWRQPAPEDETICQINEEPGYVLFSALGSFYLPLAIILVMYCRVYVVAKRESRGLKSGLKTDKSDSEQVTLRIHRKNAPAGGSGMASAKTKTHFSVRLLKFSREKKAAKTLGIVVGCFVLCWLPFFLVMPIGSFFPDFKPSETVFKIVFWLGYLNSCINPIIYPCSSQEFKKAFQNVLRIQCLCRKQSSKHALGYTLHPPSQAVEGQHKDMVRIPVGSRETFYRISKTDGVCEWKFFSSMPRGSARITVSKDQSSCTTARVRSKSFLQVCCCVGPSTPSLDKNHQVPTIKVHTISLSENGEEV
Method: as §1

[3] = target: T3, Adrenergic Beta 2 Adrenoceptor (Homo sapiens, UniProt P07550)
T3 construct: gene ADRB2
Method: as §1

[4] = target: T4, Angiotensin 1 (Homo sapiens, UniProt P30556)
T4 construct: gene AGTR1
T4 sequence (P30556 1-359): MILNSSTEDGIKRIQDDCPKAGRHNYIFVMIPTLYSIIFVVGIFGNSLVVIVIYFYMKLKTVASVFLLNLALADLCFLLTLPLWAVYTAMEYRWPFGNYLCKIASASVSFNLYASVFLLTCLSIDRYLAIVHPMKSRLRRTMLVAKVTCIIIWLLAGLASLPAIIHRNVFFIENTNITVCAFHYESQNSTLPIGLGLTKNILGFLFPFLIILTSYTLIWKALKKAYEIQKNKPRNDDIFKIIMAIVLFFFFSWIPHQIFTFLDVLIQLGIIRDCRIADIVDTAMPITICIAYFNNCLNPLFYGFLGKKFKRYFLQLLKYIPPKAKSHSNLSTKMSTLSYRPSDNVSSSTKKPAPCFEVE
Method: as §1

[5] = target: T5, Cannabinoid CB1 (Homo sapiens, UniProt P21554)
T5 construct: gene CNR1
Method: as §1

[6] = target: T6, Dopamine D1 (Homo sapiens, UniProt P21728)
T6 construct: gene DRD1
Method: as §1

[7] = target: T7, Histamine H1 (Homo sapiens, UniProt P35367)
T7 construct: gene HRH1
Method: as §1

[8] = target: T8, Histamine H2 (Homo sapiens, UniProt P25021); details: agonist
T8 construct: gene HRH2
Method: as §1

[9] = target: T9, Mu Opiod (Homo sapiens, UniProt P35372); details: antagonist
T9 construct: gene OPRM1
Method: as §1

[10] = target: T10, Muscarinic 3 (Homo sapiens, UniProt P20309)
T10 construct: gene CHRM3
Method: as §1

[11] = target: T11, Serotonin 5-HT1a Receptor (Homo sapiens, UniProt P08908); details: agonist
T11 construct: gene HTR1A
Method: as §1

[12] = target: T12, Thyrotopin Releasing Hormone 1 (TRH1) Receptor (Homo sapiens, UniProt P34981)
T12 construct: gene TRHR
T12 sequence (P34981 1-398): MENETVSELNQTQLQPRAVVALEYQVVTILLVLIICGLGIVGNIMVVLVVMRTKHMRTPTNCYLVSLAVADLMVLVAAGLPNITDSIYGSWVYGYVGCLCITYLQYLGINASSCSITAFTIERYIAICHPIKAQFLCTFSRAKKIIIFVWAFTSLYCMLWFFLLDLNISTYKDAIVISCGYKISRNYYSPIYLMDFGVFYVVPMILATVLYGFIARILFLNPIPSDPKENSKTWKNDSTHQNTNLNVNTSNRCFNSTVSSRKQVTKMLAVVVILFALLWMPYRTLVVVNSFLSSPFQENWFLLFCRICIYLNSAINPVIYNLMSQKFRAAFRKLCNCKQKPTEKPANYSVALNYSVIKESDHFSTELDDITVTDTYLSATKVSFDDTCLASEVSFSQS
Method: as §1

T6 sequence (P21728 whole entry): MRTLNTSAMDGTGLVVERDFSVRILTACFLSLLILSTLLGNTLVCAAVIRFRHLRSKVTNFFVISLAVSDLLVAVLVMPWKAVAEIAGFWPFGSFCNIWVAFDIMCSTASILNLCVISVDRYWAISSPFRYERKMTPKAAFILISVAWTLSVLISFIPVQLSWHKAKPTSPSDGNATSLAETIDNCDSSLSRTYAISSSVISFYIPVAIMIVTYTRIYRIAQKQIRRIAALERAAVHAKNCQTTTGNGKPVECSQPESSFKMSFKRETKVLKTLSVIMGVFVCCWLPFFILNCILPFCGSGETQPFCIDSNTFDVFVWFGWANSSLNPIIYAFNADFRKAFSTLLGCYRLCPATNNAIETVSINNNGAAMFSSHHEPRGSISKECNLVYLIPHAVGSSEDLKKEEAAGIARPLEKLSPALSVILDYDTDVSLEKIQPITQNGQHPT
T7 sequence (P35367 whole entry): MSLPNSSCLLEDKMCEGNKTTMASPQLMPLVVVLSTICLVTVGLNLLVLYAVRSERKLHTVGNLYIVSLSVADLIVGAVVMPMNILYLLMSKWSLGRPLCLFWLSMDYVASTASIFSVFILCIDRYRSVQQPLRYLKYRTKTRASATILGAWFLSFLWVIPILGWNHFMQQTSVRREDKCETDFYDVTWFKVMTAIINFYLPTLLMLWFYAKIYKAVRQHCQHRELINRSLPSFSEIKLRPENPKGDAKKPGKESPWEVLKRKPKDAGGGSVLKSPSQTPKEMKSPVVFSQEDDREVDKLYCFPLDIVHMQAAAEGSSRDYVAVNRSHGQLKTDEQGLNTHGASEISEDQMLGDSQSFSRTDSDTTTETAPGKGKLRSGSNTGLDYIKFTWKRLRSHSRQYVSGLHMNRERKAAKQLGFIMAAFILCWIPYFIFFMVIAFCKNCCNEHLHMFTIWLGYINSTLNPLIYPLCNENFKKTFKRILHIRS
T3 sequence (P07550 whole entry): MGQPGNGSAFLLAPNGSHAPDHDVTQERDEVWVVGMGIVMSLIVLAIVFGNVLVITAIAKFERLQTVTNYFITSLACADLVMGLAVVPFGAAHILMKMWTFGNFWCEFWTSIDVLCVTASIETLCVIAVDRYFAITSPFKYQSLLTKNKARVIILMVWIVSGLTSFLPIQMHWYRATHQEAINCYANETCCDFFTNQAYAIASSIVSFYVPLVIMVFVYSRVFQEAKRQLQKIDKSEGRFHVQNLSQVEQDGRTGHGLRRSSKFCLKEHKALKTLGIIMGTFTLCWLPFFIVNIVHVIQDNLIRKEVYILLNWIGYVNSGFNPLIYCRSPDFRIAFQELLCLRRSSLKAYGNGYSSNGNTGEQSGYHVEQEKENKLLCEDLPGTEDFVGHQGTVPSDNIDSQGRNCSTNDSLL
T10 sequence (P20309 whole entry): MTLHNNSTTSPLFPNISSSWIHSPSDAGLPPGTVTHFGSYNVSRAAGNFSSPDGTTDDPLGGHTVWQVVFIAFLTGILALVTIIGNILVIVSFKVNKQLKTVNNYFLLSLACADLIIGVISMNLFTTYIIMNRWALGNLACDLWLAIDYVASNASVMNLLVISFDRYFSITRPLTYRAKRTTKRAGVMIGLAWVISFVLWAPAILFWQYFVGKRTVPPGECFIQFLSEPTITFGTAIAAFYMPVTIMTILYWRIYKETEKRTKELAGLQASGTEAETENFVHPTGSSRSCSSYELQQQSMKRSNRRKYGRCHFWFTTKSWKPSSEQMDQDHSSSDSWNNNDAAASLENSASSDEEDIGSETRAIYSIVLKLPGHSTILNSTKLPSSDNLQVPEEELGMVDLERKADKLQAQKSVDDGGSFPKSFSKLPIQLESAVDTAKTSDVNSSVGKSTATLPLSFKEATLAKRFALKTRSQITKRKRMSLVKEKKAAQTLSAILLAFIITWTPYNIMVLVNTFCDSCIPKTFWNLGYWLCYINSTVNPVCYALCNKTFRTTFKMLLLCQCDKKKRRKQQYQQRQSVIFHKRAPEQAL
T5 sequence (P21554 whole entry): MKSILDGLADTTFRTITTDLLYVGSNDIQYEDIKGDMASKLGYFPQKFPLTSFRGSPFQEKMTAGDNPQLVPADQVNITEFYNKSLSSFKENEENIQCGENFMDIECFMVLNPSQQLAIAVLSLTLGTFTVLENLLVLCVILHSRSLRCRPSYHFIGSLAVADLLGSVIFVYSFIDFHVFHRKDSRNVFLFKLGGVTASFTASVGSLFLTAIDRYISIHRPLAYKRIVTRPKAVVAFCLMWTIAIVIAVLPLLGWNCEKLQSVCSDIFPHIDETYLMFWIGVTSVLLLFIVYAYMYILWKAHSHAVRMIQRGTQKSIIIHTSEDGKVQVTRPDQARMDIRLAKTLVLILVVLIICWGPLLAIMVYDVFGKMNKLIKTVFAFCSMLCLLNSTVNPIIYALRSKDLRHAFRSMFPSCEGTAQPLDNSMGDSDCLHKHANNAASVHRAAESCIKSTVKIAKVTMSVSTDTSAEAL
T1 sequence (P30542 whole entry): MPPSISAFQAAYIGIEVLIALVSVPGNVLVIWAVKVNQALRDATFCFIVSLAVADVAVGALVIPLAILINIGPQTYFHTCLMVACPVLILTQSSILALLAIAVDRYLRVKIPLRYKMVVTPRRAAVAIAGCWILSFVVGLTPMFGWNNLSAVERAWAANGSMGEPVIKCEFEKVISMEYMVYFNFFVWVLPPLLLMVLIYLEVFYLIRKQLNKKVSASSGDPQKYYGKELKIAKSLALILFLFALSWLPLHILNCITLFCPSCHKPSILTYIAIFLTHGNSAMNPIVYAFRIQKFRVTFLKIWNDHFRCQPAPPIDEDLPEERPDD
T11 sequence (P08908 whole entry): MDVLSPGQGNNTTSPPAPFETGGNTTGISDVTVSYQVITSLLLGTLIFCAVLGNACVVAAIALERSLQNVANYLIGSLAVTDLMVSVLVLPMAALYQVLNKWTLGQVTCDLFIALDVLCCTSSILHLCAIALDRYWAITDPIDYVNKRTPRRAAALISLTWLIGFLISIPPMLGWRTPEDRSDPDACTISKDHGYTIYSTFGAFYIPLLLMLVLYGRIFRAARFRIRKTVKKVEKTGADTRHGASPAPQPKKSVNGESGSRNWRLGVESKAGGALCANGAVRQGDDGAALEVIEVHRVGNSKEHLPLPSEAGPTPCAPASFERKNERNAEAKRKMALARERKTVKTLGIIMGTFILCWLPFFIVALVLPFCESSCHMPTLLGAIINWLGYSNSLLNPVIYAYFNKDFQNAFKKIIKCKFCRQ
T9 sequence (P35372 whole entry): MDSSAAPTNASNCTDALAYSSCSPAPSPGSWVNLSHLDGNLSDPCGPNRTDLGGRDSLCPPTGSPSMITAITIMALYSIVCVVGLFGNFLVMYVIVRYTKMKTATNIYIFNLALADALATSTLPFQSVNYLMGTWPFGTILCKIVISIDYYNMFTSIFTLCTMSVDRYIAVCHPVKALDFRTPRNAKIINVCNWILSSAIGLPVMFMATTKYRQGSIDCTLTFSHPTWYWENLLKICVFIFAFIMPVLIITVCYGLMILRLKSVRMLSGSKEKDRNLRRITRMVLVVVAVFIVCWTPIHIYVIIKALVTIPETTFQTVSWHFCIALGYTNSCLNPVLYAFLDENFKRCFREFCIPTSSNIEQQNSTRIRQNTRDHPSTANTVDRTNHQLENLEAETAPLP
T8 sequence (P25021 whole entry): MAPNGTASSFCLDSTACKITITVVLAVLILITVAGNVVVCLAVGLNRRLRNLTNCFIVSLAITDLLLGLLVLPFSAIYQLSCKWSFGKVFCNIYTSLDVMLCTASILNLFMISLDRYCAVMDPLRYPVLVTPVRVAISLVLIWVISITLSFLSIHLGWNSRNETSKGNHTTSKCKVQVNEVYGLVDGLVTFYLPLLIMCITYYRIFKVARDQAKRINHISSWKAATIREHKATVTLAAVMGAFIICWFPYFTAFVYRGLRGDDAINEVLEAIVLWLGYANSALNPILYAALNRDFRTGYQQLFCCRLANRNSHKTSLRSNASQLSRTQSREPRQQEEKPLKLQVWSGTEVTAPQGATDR

O=C(O)c1sc2cc(F)sc2c1Cl [PF-07208254, 3-chloro-5-fluorothieno[3,2-b]thiophene-2-carboxylic acid]
% (agonism) PF-07208254 ([1]; 100 µM): 0% | % (agonism) PF-07208254 ([2]; 100 µM, agonist): 8% | % Inhibition (antagonism) PF-07208254 ([2]; 100 µM, antagonist): 21% | % (agonism) PF-07208254 ([3]; 100 µM, agonist): -5% | % Inhibition (antagonism) PF-07208254 ([3]; 100 µM, antagonist): 10% | % (agonism) PF-07208254 ([4]; 100 µM, agonist): 3% | % Inhibition (antagonism) PF-07208254 ([4]; 100 µM, antagonist): 18% | % (agonism) PF-07208254 ([5]; 100 µM, agonist): 55% | % Inhibition (antagonism) PF-07208254 ([5]; 100 µM, antagonist): -10% | % (agonism) PF-07208254 ([6]; 100 µM, agonist): -4% | % Inhibition (antagonism) PF-07208254 ([6]; 100 µM, antagonist): -5% | % (agonism) PF-07208254 ([7]; 100 µM, agonist): -1% | % Inhibition (antagonism) PF-07208254 ([7]; 100 µM, antagonist): 17% | % (agonism) PF-07208254 ([8]; 100 µM): 0% | % Inhibition (antagonism) PF-07208254 ([9]; 100 µM): 2% | % (agonism) PF-07208254 ([10]; 100 µM, agonist): 0% | % Inhibition (antagonism) PF-07208254 ([10]; 100 µM, antagonist): 18% | % (agonism) PF-07208254 ([11]; 100 µM): -1% | % (agonism) PF-07208254 ([12]; 100 µM, agonist): 4% | % Inhibition (antagonism) PF-07208254 ([12]; 100 µM, antagonist): -5%

CCC1(COc2ccc(-c3csc(-c4ccccc4C(=O)O)n3)cn2)CC1 [PF-07247685, 2-(4-{6-[(1-ethylcyclopropyl)methoxy]pyridin-3-yl}-1,3-thiazol-2-yl)benzoic acid]
% (agonism) PF-07247685 ([1]; 10 µM): 0% | % (agonism) PF-07247685 ([2]; 10 µM, agonist): 1% | % Inhibition (antagonism) PF-07247685 ([2]; 10 µM, antagonist): 14% | % (agonism) PF-07247685 ([3]; 10 µM, agonist): -6% | % Inhibition (antagonism) PF-07247685 ([3]; 10 µM, antagonist): 3% | % (agonism) PF-07247685 ([4]; 10 µM, agonist): -8% | % Inhibition (antagonism) PF-07247685 ([4]; 10 µM, antagonist): 5% | % (agonism) PF-07247685 ([5]; 10 µM, agonist): 39% | % Inhibition (antagonism) PF-07247685 ([5]; 10 µM, antagonist): -4% | % (agonism) PF-07247685 ([6]; 10 µM, agonist): 4% | % Inhibition (antagonism) PF-07247685 ([6]; 10 µM, antagonist): 5% | % (agonism) PF-07247685 ([7]; 10 µM, agonist): -5% | % Inhibition (antagonism) PF-07247685 ([7]; 10 µM, antagonist): -2% | % (agonism) PF-07247685 ([8]; 10 µM): 1% | % Inhibition (antagonism) PF-07247685 ([9]; 10 µM): -3% | % (agonism) PF-07247685 ([10]; 10 µM, agonist): -1% | % Inhibition (antagonism) PF-07247685 ([10]; 10 µM, antagonist): 3% | % (agonism) PF-07247685 ([11]; 10 µM): -1% | % (agonism) PF-07247685 ([12]; 10 µM, agonist): 4% | % Inhibition (antagonism) PF-07247685 ([12]; 10 µM, antagonist): 10%
